Experimental data from patent US20240317721A1, “PYRAZOLYL DERIVATIVES AS INHIBITORS OF THE KRAS MUTANT PROTEIN” (NOVARTIS AG, priority 2021, published 2024).
pIC50: −log10 of the molar value.

Each molecule was assayed against KRasG12C (M1-K169, biotinylated on the N-terminus) (Homo sapiens (Human), UniProt P01116, G12C) (assay: Covalent competition assay: scintillation proximity assay (SPA) quantifying covalent modification of KRASG12C). Conditions: competition with radiolabeled covalent probe (Compound B/Compound A), 2 hours incubation, 10 nM KRasG12C.
Type: binding
How it was run: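 Scintillation proximity readout after streptavidin bead capture (30 min) of biotinylated KRasG12C(M1-K169):GDP, 10 nM final, which was covalently labelled over 2 h by 25 nM radio-probe plus 475 nM cold probe unless blocked by compound.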

SMILES | pIC50
C=CC(=O)N1CC2(CC(n3nc(N4CC[C@@H](CN5CCC6(C5)CN(C(C)=O)C6)CC4(C)C)c(-c4c(Cl)c(Cl)cc5[nH]ncc45)c3C)C2)C1 (single isomer, unassigned) [Example 317b] | 8.15
C=CC(=O)N1CC2(CC(n3nc(N4CC[C@@H](CN5C6CCC5CN(C(C)=O)C6)CC4(C)C)c(-c4c(Cl)c(Cl)cc5[nH]ncc45)c3C)C2)C1 (single isomer, unassigned) [Example 318a] | 5.40
C=CC(=O)N1CC2(CC(n3nc(N4CC[C@@H](CN5C6CCC5CN(C(C)=O)C6)CC4(C)C)c(-c4c(Cl)c(Cl)cc5[nH]ncc45)c3C)C2)C1 (single isomer, unassigned) [Example 318b] | 8.15
C=CC(=O)N1CC2(CC(n3nc(N4CC[C@@H](CN5CCN(C(C)=O)CC5)CC4(C)C)c(-c4c(Cl)c(Cl)cc5[nH]ncc45)c3C)C2)C1 (single isomer, unassigned) [Example 319a] | 5.57
C=CC(=O)N1CC2(CC(n3nc(N4CC[C@@H](CN5CCN(C(C)=O)CC5)CC4(C)C)c(-c4c(Cl)c(Cl)cc5[nH]ncc45)c3C)C2)C1 (single isomer, unassigned) [Example 319b] | 8.05
C=CC(=O)N1CC2(CC(n3nc(N4CC[C@@H](CN5CCN(C6COC6)C[C@@H]5COC)CC4(C)C)c(-c4c(Cl)c(Cl)cc5[nH]ncc45)c3C)C2)C1 (single isomer, unassigned) [Example 320a] | 5.48
C=CC(=O)N1CC2(CC(n3nc(N4CC[C@@H](CN5CCN(C6COC6)C[C@@H]5COC)CC4(C)C)c(-c4c(Cl)c(Cl)cc5[nH]ncc45)c3C)C2)C1 (single isomer, unassigned) [Example 320b] | > 8.30
C=CC(=O)N1CC2(CC(n3nc(N4C[C@H]5C[C@@H]4CN5C(C)=O)c(-c4c(Cl)c(C)cc5[nH]ncc45)c3C)C2)C1 [Example 5, 1-(6-(3-((1R,4R)-5-acetyl-2,5-diazabicyclo[2.2.1]heptan-2-yl)-4-(5-chloro-6-methyl-1H-indazol-4-yl)-5-methyl-1H-pyrazol-1-yl)-2-azaspiro[3.3]heptan-2-yl)prop-2-en-1-one] | 5.66
C=CC(=O)N1CC2(CC(n3nc(N4C[C@@H]5C[C@H]4CN5C(C)=O)c(-c4c(Cl)c(C)cc5[nH]ncc45)c3C)C2)C1 [Example 6, 1-(6-(3-((1S,4S)-5-acetyl-2,5-diazabicyclo[2.2.1]heptan-2-yl)-4-(5-chloro-6-methyl-1H-indazol-4-yl)-5-methyl-1H-pyrazol-1-yl)-2-azaspiro[3.3]heptan-2-yl)prop-2-en-1-one] | 6.00
C=CC(=O)N1CC2(CC(n3nc(N4Cc5cnn(C)c5C4)c(-c4c(Cl)c(C)cc5[nH]ncc45)c3C)C2)C1 [Example 12, 1-(6-(4-(5-chloro-6-methyl-1H-indazol-4-yl)-5-methyl-3-(1-methyl-4,6-dihydropyrrolo[3,4-c]pyrazol-5(1H)-yl)-1H-pyrazol-1-yl)-2-azaspiro[3.3]heptan-2-yl)prop-2-en-1-one] | 5.85
C=CC(=O)N1CC2(CC(n3nc(N4CCC5C(=O)N(C)CC5C4)c(-c4c(Cl)c(C)cc5[nH]ncc45)c3C)C2)C1 (stereo not drawn) [Example 16, (3aS*,7aS*)-5-(1-(2-acryloyl-2-azaspiro[3.3]heptan-6-yl)-4-(5-chloro-6-methyl-1H-indazol-4-yl)-5-methyl-1H-pyrazol-3-yl)-2-methyloctahydro-1H-pyrrolo[3,4-c]pyridin-1-one] | 6.00
C=CC(=O)N1CC2(CC(n3nc(N4CCC5C(=O)N(C)CC5C4)c(-c4c(Cl)c(C)cc5[nH]ncc45)c3C)C2)C1 (stereo not drawn) [Example 17, (3aS*,7aS*)-5-(1-(2-acryloyl-2-azaspiro[3.3]heptan-6-yl)-4-(5-chloro-6-methyl-1H-indazol-4-yl)-5-methyl-1H-pyrazol-3-yl)-2-methyloctahydro-1H-pyrrolo[3,4-c]pyridin-1-one] | 6.08
C=CC(=O)N1CC2(CC(n3nc(N4CCC(=O)CC45CCC5)c(-c4c(Cl)c(C)cc5[nH]ncc45)c3C)C2)C1 [Example 46, 5-(1-(2-acryloyl-2-azaspiro[3.3]heptan-6-yl)-4-(5-chloro-6-methyl-1H-indazol-4-yl)-5-methyl-1H-pyrazol-3-yl)-5-azaspiro[3.5]nonan-8-one] | 6.86
C=CC(=O)N1CC2(CC(n3nc(N4CCC(=O)CC45CCC5)c(-c4c(Cl)c(C)cc5[nH]ncc45)c3C)C2)C1 [Example 47, 5-(1-(2-acryloyl-2-azaspiro[3.3]heptan-6-yl)-4-(5-chloro-6-methyl-1H-indazol-4-yl)-5-methyl-1H-pyrazol-3-yl)-5-azaspiro[3.5]nonan-8-one] | < 5.30
C=CC(=O)N1CC2(CC(n3nc(N4CCCC45CCOCC5)c(-c4c(Cl)c(C)cc5[nH]ncc45)c3C)C2)C1 [Example 60, 1-(6-(4-(5-chloro-6-methyl-1H-indazol-4-yl)-5-methyl-3-(8-oxa-1-azaspiro[4.5]decan-1-yl)-1H-pyrazol-1-yl)-2-azaspiro[3.3]heptan-2-yl)prop-2-en-1-one] | 5.31
C=CC(=O)N1CC2(CC(n3nc(N4[C@H]5CC[C@@H]4CN(C)CC5)c(-c4c(Cl)c(C)cc5[nH]ncc45)c3C)C2)C1 [Example 64, 1-(6-(4-(5-chloro-6-methyl-1H-indazol-4-yl)-5-methyl-3-((1R,6S)-3-methyl-3,9-diazabicyclo[4.2.1]nonan-9-yl)-1H-pyrazol-1-yl)-2-azaspiro[3.3]heptan-2-yl)prop-2-en-1-one] | 6.28
C=CC(=O)N1CC2(CC(n3nc(N4CCC(N5C6CCC5COC6)CC4(C)C)c(-c4c(Cl)c(C)cc5[nH]ncc45)c3C)C2)C1 [Example 74a, 1-(6-(3-(4-((1R,5S)-3-oxa-8-azabicyclo[3.2.1]octan-8-yl)-2,2-dimethylpiperidin-1-yl)-4-(5-chloro-6-methyl-1H-indazol-4-yl)-5-methyl-1H-pyrazol-1-yl)-2-azaspiro[3.3]heptan-2-yl)prop-2-en-1-one] | < 5.30
C=CC(=O)N1CC2(CC(n3nc(N4CCC(N5C6CCC5COC6)CC4(C)C)c(-c4c(Cl)c(C)cc5[nH]ncc45)c3C)C2)C1 [Example 75a, 1-(6-(3-(4-((1R,5S)-3-oxa-8-azabicyclo[3.2.1]octan-8-yl)-2,2-dimethylpiperidin-1-yl)-4-(5-chloro-6-methyl-1H-indazol-4-yl)-5-methyl-1H-pyrazol-1-yl)-2-azaspiro[3.3]heptan-2-yl)prop-2-en-1-one] | < 5.30
C=CC(=O)N1CC2(CC(n3nc(N4CCN(C(C)=O)CC4(C)C)c(-c4cc(O)cc5ccccc45)c3C)C2)C1 [Example 77, 1-(6-(3-(4-acetyl-2,2-dimethylpiperazin-1-yl)-4-(3-hydroxynaphthalen-1-yl)-5-methyl-1H-pyrazol-1-yl)-2-azaspiro[3.3]heptan-2-yl)prop-2-en-1-one] | 5.92
C=CC(=O)N1CC2(CC(n3nc(N4CCC(C(=O)N(C)C)CC4(C)C)c(-c4c(Cl)c(C)cc5[nH]ncc45)c3C)C2)C1 (stereo not drawn) [Example 98a, 1-(1-(2-acryloyl-2-azaspiro[3.3]heptan-6-yl)-4-(5-chloro-6-methyl-1H-indazol-4-yl)-5-methyl-1H-pyrazol-3-yl)-N,N,2,2-tetramethylpiperidine-4-carboxamide] | < 5.30
C=CC(=O)N1CC2(CC(n3nc(N4CCC(C(=O)N(C)C)CC4(C)C)c(-c4c(Cl)c(C)cc5[nH]ncc45)c3C)C2)C1 (stereo not drawn) [Example 99b, 1-(1-(2-acryloyl-2-azaspiro[3.3]heptan-6-yl)-4-(5-chloro-6-methyl-1H-indazol-4-yl)-5-methyl-1H-pyrazol-3-yl)-N,N,2,2-tetramethylpiperidine-4-carboxamide] | < 5.30
